Test [1] addresses T1, SET7/9 (Homo sapiens, UniProt Q8WTS6).
T1 sequence (Q8WTS6 1-366): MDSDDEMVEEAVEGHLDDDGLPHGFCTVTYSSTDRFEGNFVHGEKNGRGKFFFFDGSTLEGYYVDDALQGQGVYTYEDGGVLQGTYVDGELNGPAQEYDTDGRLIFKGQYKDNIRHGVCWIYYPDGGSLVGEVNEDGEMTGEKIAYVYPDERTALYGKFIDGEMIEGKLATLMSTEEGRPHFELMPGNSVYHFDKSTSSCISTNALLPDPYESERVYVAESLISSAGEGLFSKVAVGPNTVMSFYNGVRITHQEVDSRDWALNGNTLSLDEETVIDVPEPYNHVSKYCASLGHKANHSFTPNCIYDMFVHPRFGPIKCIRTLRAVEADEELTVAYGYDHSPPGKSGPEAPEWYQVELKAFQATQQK
Conditions: as described, Cheng et al.; cited from earlier work.

Test [2] concerns the target T2, PRMT1 (Homo sapiens, UniProt Q99873). The settings on record: in-vitro, Cheng et al.; cited from earlier work.
Target sequence in this assay (Q99873 whole entry, species assumed): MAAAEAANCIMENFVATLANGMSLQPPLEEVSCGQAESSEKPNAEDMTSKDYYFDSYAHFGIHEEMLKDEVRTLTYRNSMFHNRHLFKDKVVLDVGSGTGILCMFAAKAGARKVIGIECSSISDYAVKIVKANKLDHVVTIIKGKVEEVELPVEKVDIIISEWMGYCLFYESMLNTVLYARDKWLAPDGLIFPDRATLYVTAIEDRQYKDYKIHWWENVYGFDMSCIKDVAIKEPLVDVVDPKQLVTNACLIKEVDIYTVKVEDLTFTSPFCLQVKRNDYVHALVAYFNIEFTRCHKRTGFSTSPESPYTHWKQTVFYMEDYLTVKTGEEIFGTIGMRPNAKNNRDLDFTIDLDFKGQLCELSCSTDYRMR
Test [3] deals with T1, SET7/9. Kind of test: In vitro selectivity test against lysine methyltransferase. The test is classed as biochemical. The text has this:
Für die Enzymhemmung wurde ein Assay verwendet, der auf immobilisierten Oligopeptiden als Enzymsubstrate und den entsprechenden Enzymen beruht. Die Quantifizierung der Methylierung erfolgt über einen Antikörper gegen das Dimethylarginin und die Detektion über einen Europium gelabelten Sekundärantikörper. Die potentesten Verbindungen wurden ebenfalls in-vitro auf ihre Selektivität gegenüber SET7/9, einer Lysinmonomethyltransferase untersucht. Die Methodik der verwendeten Testverfahren ist im Detail in der Dissertation von Astrid Spannhoff, "Neue Testsysteme für Histonmethyltransferasen und Histondemethylasen", Albert-Ludwigs-Universität Freiburg, 2007 beschrieben. Der Offenbarungsgehalt dieser Arbeit wird durch Bezugnahme hier eingeschlossen.

Test [4] has as its target T2, PRMT1. Kind of test: Target-based virtual screening combined with biochemical test, PRMT inhibition of known inhibitors.
Target sequence in this assay (Q99873 whole entry): as the sequence (Q99873 whole entry, species assumed) above

pIC50: −log10 of the molar value. Read-outs that look alike come from different tables or passages of the source.

`O=C(Nc1ccc2c(O)cc(S(=O)(=O)O)cc2c1)Nc1ccc2c(O)cc(S(=O)(=O)O)cc2c1` [AMI-1]: at SET7/9 [1], the “Selektivität gegenüber der Lysinmethyltransferase SET7/9” value was “selektiv”.

On to `O.O.O.O=C([O-])c1ccccc1-c1c2cc(Br)c(=O)c(Br)c-2oc2c(Br)c([O-])c(Br)cc12.[Na+].[Na+]` [AMI-5], for which the pIC50 on PRMT1 [2] is 5.85. Besides, the “Selektivität gegenüber der Lysinmethyltransferase SET7/9” value at SET7/9 [1] is “dualer Inhibitor”.

Regarding Allantodapson, the pIC50 against SET7/9 [3] is 4.96; on PRMT1 [4] (inhibitors of PRMT from target-based screening), 5.77. For the same molecule, the “Mode of inhibition (Docking- und Kompetitionsexperimente)” value at PRMT1 [4] (conclusion from docking and competition experiments) is recorded as “zum Sustrat kompetitive Verbindungen”.
